Assay results taken from ChEMBL document CHEMBL5576087 (Bioorg Med Chem Lett, 2024).
Calls of active or inactive are those of the source. No cut-off for these calls is given here.

How the values were obtained:
[1] = tested on: MM1.S; test: Effect on IKZF3 protein level in human MM1.S cells at 0.1 uM measured after 16 hrs by Western blot analysis; type: functional, cell-based
[2] = tested on: MM1.S; test: Effect on CK1a protein level in human MM1.S cells at 0.1 uM measured after 16 hrs by Western blot analysis; type: functional, cell-based
[3] = tested on: MM1.S; test: Effect on GSPT1 protein level in human MM1.S cells at 0.1 uM measured after 16 hrs by Western blot analysis; type: functional, cell-based
[4] = tested on: MM1.S; test: Antiproliferative activity against human MM1.S cells at 10 uM measured after 72 hrs by CCK-8 method; type: functional, cell-based
[5] = tested on: HUVEC; test: Antiangiogenesis activity in HUVEC cells assessed as inhibition of tube formation at 10 to 100 uM measured after 18 hrs; type: functional, cell-based; conditions: Homo sapiens, dose 10-100 µM
[6] = tested on: HUVEC; test: Antiproliferative activity against human HUVEC cells at 10 uM measured after 48 hrs by CCK-8 method; type: toxicity, cell-based
[7] = tested on: HuH-6; test: Effect on SALL4 protein level in human HuH-6 cells at 0.1 uM measured after 16 hrs by Western blot analysis; type: functional, cell-based
[8] = tested on: MM1.S; test: Antiproliferative activity against human MM1.S cells at 100 uM measured after 72 hrs by CCK-8 method; type: functional, cell-based
[9] = tested on: HUVEC; test: Antiproliferative activity against human HUVEC cells at 100 uM measured after 48 hrs by CCK-8 method; type: toxicity, cell-based
[10] = target: Protein cereblon (Homo sapiens, UniProt Q96SW2); test: Binding affinity to human CRBN TBD (319 to 425 residues) assessed as inhibition constant by MST assay
[11] = tested on: HUVEC; test: Antiangiogenesis activity in HUVEC cells assessed as inhibition of tube formation measured after 18 hrs; type: functional, cell-based; conditions: Homo sapiens
[12] = tested on: HUVEC; test: Antiproliferative activity against human HUVEC cells at 10 uM measured after 48 hrs by CCK-8 method relative to control; type: toxicity, cell-based
[13] = tested on: HUVEC; test: Inhibition of tube formation in HUVEC cells at 100 uM measured after 18 hrs relative to control; type: functional; conditions: Homo sapiens
[14] = Metabolic stability in human liver microsomes assessed as half life measured upto 60 mins in presence of NADPH by LC/MS analysis; type: ADME, Microsome

Row | Compound | Activity [1] | Activity [2] | Activity [3] | Activity [4] | Activity [5] | Activity [6] | Activity [7] | Activity [8] | Activity [9] | Ki [10] | IC50 [11] [nM] | Activity [12] [%] | inhibition [13] | half-life [14] [min] | inhibition at 100 µM [13] [%]
1 | O=C1CCC(NC(=O)c2cc(F)c(F)c(F)c2F)C(=O)N1 (centres undefined) | inactive | inactive | inactive | inactive | inactive | Non-Toxic | inactive | – | – | – | – | – | – | – | –
2 | O=C1CCC(N2C(=O)c3ccccc3C2=O)C(=O)N1 (centres undefined) [THALIDOMIDE] | inactive | inactive | inactive | – | inactive | – | inactive | inactive | Non-Toxic | – | – | – | – | – | –
3 | O=C1CCC(N2C(=O)c3c(F)c(F)c(F)c(F)c3C2=O)C(=O)N1 (centres undefined) | inactive | inactive | inactive | – | – | – | inactive | – | – | – | – | – | – | – | –
4 | CC(C)N1C(=O)NC(=O)C(C)(N2C(=O)c3c(F)c(F)c(F)c(F)c3C2=O)C1=O (centres undefined) | inactive | inactive | inactive | – | – | – | inactive | – | – | Not Active | 2800 | > 95 | – | – | –
5 | O=C1CCC(NC(=O)c2cc(F)c(F)cc2F)C(=O)N1 (centres undefined) | – | – | – | – | – | – | – | – | – | – | – | – | inactive | – | –
6 | O=C1CCC(NC(=O)c2ccccc2)C(=O)N1 (centres undefined) | inactive | inactive | inactive | inactive | inactive | Non-Toxic | inactive | – | – | – | – | – | – | – | –
7 | CC(C)N1C(=O)NC(=O)C(C)(N2C(=O)c3ccccc3C2=O)C1=O (centres undefined) | inactive | inactive | inactive | inactive | inactive | Non-Toxic | inactive | – | – | Not Active | – | – | – | 19.3 | –
8 | CC(C)N1C(=O)NC(=O)C(C)(NC(=O)c2ccccc2)C1=O (centres undefined) | inactive | inactive | inactive | inactive | inactive | Non-Toxic | inactive | – | – | Not Active | – | – | – | – | –
9 | CC(C)N1C(=O)NC(=O)C(C)(NC(=O)c2cc(F)c(F)c(F)c2F)C1=O (centres undefined) | inactive | inactive | inactive | inactive | inactive | Non-Toxic | inactive | – | – | Not Active | – | – | – | – | –
10 | CCOCCNc1cccc2c1C(=O)N(C1CCC(=O)NC1=O)C2=O (centres undefined) | – | – | – | – | – | – | – | – | – | – | – | – | – | – | 50
